Earlier results in patent US12636282B1 (priority 2020, dated 2026).
Read-outs that look alike come from different tables or passages of the source.

What was measured:
[1] = system: lethal influenza infections; settings: mice, lethal influenza infection
COVID-19 = settings: early uncontrolled study
influenza = settings: NAC 600 mg twice a day for 6 months; 79% with placebo
Coxackievirus B = settings: in vivo; through suppressing viral replication and inflammatory responses

For `CCN(CCO)CCCC(C)Nc1ccnc2cc(Cl)ccc12` (stereo not drawn) [HCQ, hydroxychloroquine], the “Retinal toxicity, share of patients” value (after 6 years of HCQ use) is given as 1.8%, the “Retinal toxicity, share of patients” value (after 11 years of HCQ use) is given as 3.3% and the “Retinal toxicity, share of patients” value (after 16 years of HCQ use) is given as 11.5%.

For `CCOC(=O)C1=C[C@@H](OC(CC)CC)[C@H](NC(C)=O)[C@@H](N)C1` [oseltamivir], the Survival [1] is listed as 60%.

For “Tocilizumab: interleukin 6 (IL-6) receptor antibody”, the fever (COVID-19) is given as “rapidly reduction in fever” and the oxygenation (COVID-19) is given as “improvement in oxygenation”.

In the case of `CC(=O)N[C@@H](CS)C(=O)O` [NAC, N-acetyl cysteine], the “virus-infected subjects developing flu symptoms” value (influenza) is given as 25%, the “Coxackievirus B-induced myocarditis” value (Coxackievirus B) is given as “effectively alleviates” and the Survival [1] is given as 20%.
